Measured values from patent US9745322B2, “Compounds for the treatment of hepatitis C” (priority 2013, dated 2017).
Like-named read-outs stand apart in the source and are kept apart here.

Test system: HCV pseudoparticles, genotype 1a (H77C) E1 and E2 envelope
Assay: HCV pseudoparticle infection assay (luciferase reporter, Huh7 cells)
Type: cell-based, HCV genotype 1a (H77C)
Conditions: Hepatitis C virus, Huh-7, 48 h, read-out: EC50 (nM) 1a (H77C), HCV pseudoparticles genotype 1a H77C, Huh7 cells, luciferase 2 days after infection

Row | SMILES | EC50 (class symbol) | EC50 (numeric value)
1 | CN(C)C(=O)C(=O)NC[C@H](NC(=O)c1ccc2cc1OCCCCCCOc1ccc(cc1)CNc1nc(nc(OCC(F)(F)F)n1)N2)C(=O)O [Example 1004] | 0.1 to 100 nM | –
2 | CNC(=O)C(=O)NC[C@H](NC(=O)c1ccc2cc1OCCCCCCOc1ccc(cc1)CNc1nc(nc(OCC(F)(F)F)n1)N2)C(=O)O [Example 1005] | 0.1 to 100 nM | 2.47 nM
3 | CNC(=O)C(=O)NC[C@H](NC(=O)c1ccc2cc1OCCCCCCOc1ccc(cc1)CNc1nc(nc(OCC(F)(F)F)n1)N2)C(=O)OC [Example 1002] | 0.1 to 100 nM | –
4 | COC(=O)[C@H](CNC(=O)C(=O)N(C)C)NC(=O)c1ccc2cc1OCCCCCCOc1ccc(cc1)CNc1nc(nc(OCC(F)(F)F)n1)N2 [Example 1001] | 0.1 to 100 nM | 0.624 nM
5 | COC(=O)[C@H](CNC(=O)C(N)=O)NC(=O)c1ccc2cc1OCCCCCCOc1ccc(cc1)CNc1nc(nc(OCC(F)(F)F)n1)N2 [Example 1003] | 0.1 to 100 nM | –
